From US20150175599A1, “FAAH Inhibitors” (Ironwood Pharmaceuticals, Inc., priority 2010, published 2015)

Key:
[1] = Pharmacokinetic study, plasma level 2 hours after oral dosing in rats; type: in vivo
Protocol: Pharmacokinetic studies were conducted to determine absorption and distribution profiles of the disclosed compounds which were orally administered to rats.
Compounds were formulated in a 1% DMA/99% Vitamin E TPGS vehicle. Prepared compounds were dosed via oral gavage (PO). Following the appropriate pretreatment time of 2 hours, rats were anesthetized with isoflurane gas. Blood was collected into tubes containing EDTA via retro-orbital eye bleed. Whole blood was spun in a micro-centrifuge at approximately 13,000 rpm for 5 minutes at room temperature. Separated plasma was subsequently aliquoted into eppendorf tubes. Samples were stored at −80° C. until prepped for analysis.
Plasma samples were thawed and the required amount of plasma for standards, blanks and dilutions were made. The dilutions were prepared before plating. Preparation of crash solution included cold acetonitrile+0.1% formic acid and 25 ng/mL of a FAAH inhibitor used as internal standard. solvent standards of the FAAH inhibitor being studied were preparation at 10, 30, 100, 300, 1000, 3000, 10000, 30000, 100000, and 300000 ng/mL in DMSO. Then a plasma standard curve was generated from the solvent standards (final concentrations of standards in plasma were: 0.1, 0.3, 1, 3, 10, 30, 100, 300, 1000, 3000 ng/mL). 50 μL of each plasma sample/dilution, standard, or blank was transferred into 96-well plates. To each well, 200 μL of cold crash solution was added. The plate was covered and gently vortexed. The plate was centrifuged at 3500 rpm, 4° C. for 10 min. 200 μL of each supernatant was transferred into new plates. The plates were dried under nitrogen in a TurboVap at 55° C. The sample in each well was re-suspended with 100 μL of 30% acetonitrile, covered and vortexed gently. The well solutions were analyzed by the LC/MS/MS conditions and specifications below.
HPLC column was a Clipeus C8, 2.1×30 mm, 5 μm, with Basic 8 guard column using 20 μL injections. Mobile phase used was mobile phase A: 0.1% Formic Acid in water and mobile phase B: 0.1% Formic Acid in 85:10:5 ACN:IPA:H2O. The flow rate for the run was 0.5 mL/min and the gradient for the 4 minute total run time was: 0.0 minutes

[2] = biological target: T1, hERG channel (Homo sapiens, UniProt Q12809); assay: hERG channel inhibition, automated patch clamp (IonWorks HT, hERG-CHO); type: cell-based; conditions: CHO cells expressing hERG, 600 s incubation; for inhibition at 600 s, 1 µM: 1 μM compound, read-out: hERG Channel Inhibition % (at 1 μM), vehicle-subtracted values; for inhibition at 600 s, 10 µM: 10 μM compound, read-out: hERG Channel Inhibition % (at 10 μM), vehicle-subtracted values
T1 construct: expressed in transfected cells; host or cells: CHO (hERG-CHO), under Geneticin selection
T1 sequence (Q12809 whole entry): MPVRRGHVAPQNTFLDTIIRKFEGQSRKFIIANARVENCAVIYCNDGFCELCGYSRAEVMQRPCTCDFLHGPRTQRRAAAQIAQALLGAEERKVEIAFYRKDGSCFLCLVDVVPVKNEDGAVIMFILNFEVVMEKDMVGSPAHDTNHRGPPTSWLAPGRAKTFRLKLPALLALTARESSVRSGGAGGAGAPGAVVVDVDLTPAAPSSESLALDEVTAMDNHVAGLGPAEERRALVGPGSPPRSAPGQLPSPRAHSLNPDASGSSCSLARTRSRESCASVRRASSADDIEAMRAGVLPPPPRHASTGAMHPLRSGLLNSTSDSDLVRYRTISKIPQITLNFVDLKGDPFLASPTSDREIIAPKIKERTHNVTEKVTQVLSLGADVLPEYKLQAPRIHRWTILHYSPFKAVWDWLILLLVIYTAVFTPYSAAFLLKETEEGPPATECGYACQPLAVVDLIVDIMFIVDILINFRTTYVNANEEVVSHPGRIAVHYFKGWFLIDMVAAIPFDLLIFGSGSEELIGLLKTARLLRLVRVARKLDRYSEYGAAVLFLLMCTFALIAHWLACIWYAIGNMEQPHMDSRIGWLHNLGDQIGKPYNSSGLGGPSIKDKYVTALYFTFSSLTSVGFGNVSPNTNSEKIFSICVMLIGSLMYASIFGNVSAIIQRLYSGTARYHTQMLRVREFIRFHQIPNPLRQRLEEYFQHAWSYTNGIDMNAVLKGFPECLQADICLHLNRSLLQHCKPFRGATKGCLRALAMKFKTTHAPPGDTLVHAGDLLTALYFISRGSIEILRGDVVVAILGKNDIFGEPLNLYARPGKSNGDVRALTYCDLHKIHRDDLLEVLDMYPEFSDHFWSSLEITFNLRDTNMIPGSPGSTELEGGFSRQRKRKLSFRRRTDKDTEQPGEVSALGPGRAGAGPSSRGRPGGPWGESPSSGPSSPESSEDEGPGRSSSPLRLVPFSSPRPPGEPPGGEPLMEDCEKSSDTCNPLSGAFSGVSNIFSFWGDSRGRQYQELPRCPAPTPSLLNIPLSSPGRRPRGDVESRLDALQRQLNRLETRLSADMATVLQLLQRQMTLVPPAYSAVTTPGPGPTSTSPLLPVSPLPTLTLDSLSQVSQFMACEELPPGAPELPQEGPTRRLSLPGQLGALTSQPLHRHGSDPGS
Summary of the method: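 hERG-CHO cells held at 30 °C for 48 h before IonWorks HT patch clamp: from −80 mV to +40 for 2 s, then −50 mV for 2 s tail, repeated three times, before and after 600 s compound exposure. Third-pulse post/pre tail amplitude ratio gave percent inhibition; cells with seal <50 MOhm or tail <250 pA excluded.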

[3] = biological target: T2, FAAH (Homo sapiens, UniProt O00519); assay: FAAH inhibition, human brain membrane homogenate assay; type: biochemical; conditions: human brain homogenate; average activity; read-out: Human brain Extract FAAH IC50
T2 construct: Reactions were initiated by adding 12.5 μg of brain microsome; tissue ABS, Inc; host or cells: human brain cerebral cortex, membrane/microsome fraction pooled from 3 donors
T2 sequence (O00519 1-579): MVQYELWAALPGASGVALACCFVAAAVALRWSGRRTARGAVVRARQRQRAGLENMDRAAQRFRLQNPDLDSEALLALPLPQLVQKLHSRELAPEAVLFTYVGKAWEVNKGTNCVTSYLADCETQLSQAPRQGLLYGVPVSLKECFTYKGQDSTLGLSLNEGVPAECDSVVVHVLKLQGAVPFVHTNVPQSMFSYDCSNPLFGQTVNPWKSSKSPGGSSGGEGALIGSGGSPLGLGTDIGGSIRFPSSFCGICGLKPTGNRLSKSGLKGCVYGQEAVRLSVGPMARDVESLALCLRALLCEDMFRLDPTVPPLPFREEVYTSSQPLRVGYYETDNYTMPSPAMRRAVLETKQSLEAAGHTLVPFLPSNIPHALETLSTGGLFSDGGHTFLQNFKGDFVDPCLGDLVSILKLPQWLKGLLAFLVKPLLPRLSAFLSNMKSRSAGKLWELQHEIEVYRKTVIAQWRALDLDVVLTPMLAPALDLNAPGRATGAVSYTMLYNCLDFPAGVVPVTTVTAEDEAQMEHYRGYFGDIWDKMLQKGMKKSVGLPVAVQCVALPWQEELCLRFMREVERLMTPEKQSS

In the case of `COc1cc(NC(=O)C(=O)c2c(C)n(Cc3ncc(Cl)cc3Cl)c3ccc(C)cc23)ccn1` [Compound 30, 2-(1-((3,5-dichloropyridin-2-yl)methyl)-2,5-dimethyl-1H-indol-3-yl)-N-(2-methoxypyridin-4-yl)-2-oxoacetamide], the “2 hr plasma level-ng/mL (rat, 10 mg/kg PO, 2 hr)” value (“2 hr plasma level-ng/mL” for short) [1] is reported as “C (C = between 100 nM and 1000 nM)”, the inhibition at 600 s, 1 µM [2] is reported as under 25% and the inhibition at 600 s, 10 µM [2] is reported as 50 to 75%. It also gave an IC50 [3] of under 100 nM.
For `COc1cc(NC(=O)C(=O)c2c(C)n(Cc3ncc(Cl)cc3Cl)c3ccccc23)ccn1` [Compound 31, 2-(1-((3,5-dichloropyridin-2-yl)methyl)-2-methyl-1H-indol-3-yl)-N-(2-methoxypyridin-4-yl)-2-oxoacetamide], the “2 hr plasma level-ng/mL” value [1] was “D (D = greater than 1000 nM)”, the inhibition at 600 s, 1 µM [2] was under 25% and the inhibition at 600 s, 10 µM [2] was under 25%. The IC50 [3] was under 100 nM.
For `COc1ccc(Cn2c(C)c(C(=O)C(=O)Nc3ccnc(OC)c3)c3cc(OC)c(F)cc32)nc1` [Compound 32, 2-(6-fluoro-5-methoxy-1-((5-methoxypyridin-2-yl)methyl)-2-methyl-1H-indol-3-yl)-N-(2-methoxypyridin-4-yl)-2-oxoacetamide], the “2 hr plasma level-ng/mL” value [1] was “C (C = between 100 nM and 1000 nM)”, the inhibition at 600 s, 1 µM [2] was under 25% and the inhibition at 600 s, 10 µM [2] was under 25%. The IC50 [3] was under 100 nM.
For `COc1cc(NC(=O)C(=O)c2c(C)n(Cc3ncc(Cl)cc3F)c3ccc(C)cc23)ccn1` [Compound 33, 2-(1-((5-chloro-3-fluoropyridin-2-yl)methyl)-2,5-dimethyl-1H-indol-3-yl)-N-(2-methoxypyridin-4-yl)-2-oxoacetamide], the “2 hr plasma level-ng/mL” value [1] was “C (C = between 100 nM and 1000 nM)”, the inhibition at 600 s, 1 µM [2] was under 25% and the inhibition at 600 s, 10 µM [2] was under 25%. For the same compound, the IC50 [3] was under 100 nM.
For `COc1cnc2c(c1)c(C(=O)C(=O)Nc1ccnc(OC)c1)c(C)n2Cc1ncc(Cl)cc1F` [Compound 34, 2-(1-((5-chloro-3-fluoropyridin-2-yl)methyl)-5-methoxy-2-methyl-1H-pyrrolo[2,3-b]pyridin-3-yl)-N-(2-methoxypyridin-4-yl)-2-oxoacetamide], the “2 hr plasma level-ng/mL” value [1] was “D (D = greater than 1000 nM)”, the inhibition at 600 s, 1 µM [2] was under 25% and the inhibition at 600 s, 10 µM [2] was under 25%. It also gave an IC50 [3] of under 100 nM.
In the case of `COc1cc(NC(=O)C(=O)c2c(C)n(Cc3ccc(Cl)cc3)c3ccc(OC)nc23)ccn1` [Compound 36, 2-(1-(4-chlorobenzyl)-5-methoxy-2-methyl-1H-pyrrolo[3,2-b]pyridin-3-yl)-N-(2-methoxypyridin-4-yl)-2-oxoacetamide], the “2 hr plasma level-ng/mL” value [1] is reported as “C (C = between 100 nM and 1000 nM)”, the inhibition at 600 s, 1 µM [2] is reported as under 25% and the inhibition at 600 s, 10 µM [2] is reported as under 25%. The IC50 [3] was under 100 nM.
In the case of `COc1cc(NC(=O)C(=O)c2c(C)n(Cc3ccc(Cl)cc3)c3ccncc23)ccn1` [Compound 37, 2-(1-(4-chlorobenzyl)-2-methyl-1H-pyrrolo[3,2-c]pyridin-3-yl)-N-(2-methoxypyridin-4-yl)-2-oxoacetamide], the “2 hr plasma level-ng/mL” value [1] is reported as “C (C = between 100 nM and 1000 nM)”, the inhibition at 600 s, 1 µM [2] is reported as 25 to 50% and the inhibition at 600 s, 10 µM [2] is reported as 50 to 75%. It also gave an IC50 [3] of under 100 nM.
In the case of `COc1cnc2c(c1)c(C(=O)C(=O)Nc1ccnc(OC)c1)c(C)n2Cc1ccc(Cl)cc1` [Compound 38, 2-(1-(4-chlorobenzyl)-5-methoxy-2-methyl-1H-pyrrolo[2,3-b]pyridin-3-yl)-N-(2-methoxypyridin-4-yl)-2-oxoacetamide], the “2 hr plasma level-ng/mL” value [1] is reported as “C (C = between 100 nM and 1000 nM)”, the inhibition at 600 s, 1 µM [2] is reported as under 25% and the inhibition at 600 s, 10 µM [2] is reported as 25 to 50%. The IC50 [3] was under 100 nM.
With `COc1cnc2c(c1)c(C(=O)C(=O)Nc1ccnc(OC)c1)c(C)n2Cc1ccc(Cl)cn1` [Compound 41, 2-(1-((5-chloropyridin-2-yl)methyl)-5-methoxy-2-methyl-1H-pyrrolo[2,3-b]pyridin-3-yl)-N-(2-methoxypyridin-4-yl)-2-oxoacetamide] the “2 hr plasma level-ng/mL” value [1] was “D (D = greater than 1000 nM)”, the inhibition at 600 s, 1 µM [2] was under 25% and the inhibition at 600 s, 10 µM [2] was 25 to 50%. It also gave an IC50 [3] of under 100 nM.
With `COc1cnc2c(c1)c(C(=O)C(=O)Nc1ccnc(OC)c1)c(C)n2Cc1ccc(Cl)cc1Cl` [Compound 42, 2-(1-(2,4-dichlorobenzyl)-5-methoxy-2-methyl-1H-pyrrolo[2,3-b]pyridin-3-yl)-N-(2-methoxypyridin-4-yl)-2-oxoacetamide] the “2 hr plasma level-ng/mL” value [1] was “C (C = between 100 nM and 1000 nM)”, the inhibition at 600 s, 1 µM [2] was under 25% and the inhibition at 600 s, 10 µM [2] was 50 to 75%. It also gave an IC50 [3] of under 100 nM.
For `COc1ccc(Cn2c(C)c(C(=O)C(=O)Nc3ccnc(OC)c3)c3cc(OC)ccc32)nc1` [Compound 43, 2-(5-methoxy-1-((5-methoxypyridin-2-yl)methyl)-2-methyl-1H-indol-3-yl)-N-(2-methoxypyridin-4-yl)-2-oxoacetamide], the “2 hr plasma level-ng/mL” value [1] was “D (D = greater than 1000 nM)”, the inhibition at 600 s, 1 µM [2] was under 25% and the inhibition at 600 s, 10 µM [2] was under 25%. For the same compound, the IC50 [3] was 100 to 1000 nM.
For `COc1cc(NC(=O)C(=O)c2c(C)n(Cc3ccc(Cl)cc3)c3cc(OC)c(OC)cc23)ccn1` [Compound 44, 2-(1-(4-chlorobenzyl)-5,6-dimethoxy-2-methyl-1H-indol-3-yl)-N-(2-methoxypyridin-4-yl)-2-oxoacetamide], the “2 hr plasma level-ng/mL” value [1] was “C (C = between 100 nM and 1000 nM)”, the inhibition at 600 s, 1 µM [2] was under 25% and the inhibition at 600 s, 10 µM [2] was under 25%. It also gave an IC50 [3] of under 100 nM.
With `COc1cc(NC(=O)C(=O)c2c(C)n(Cc3ccc(Cl)cc3)c3cccc(OC)c23)ccn1` [Compound 45, 2-(1-(4-chlorobenzyl)-4-methoxy-2-methyl-1H-indol-3-yl)-N-(2-methoxypyridin-4-yl)-2-oxoacetamide] the “2 hr plasma level-ng/mL” value [1] was “C (C = between 100 nM and 1000 nM)”, the inhibition at 600 s, 1 µM [2] was under 25% and the inhibition at 600 s, 10 µM [2] was under 25%. The IC50 [3] was under 100 nM.
For `COc1ccc2c(c1)c(C(=O)C(=O)Nc1ccnc(OC)n1)c(C)n2Cc1ccc(Cl)cc1` [Compound 46, 2-(1-(4-chlorobenzyl)-5-methoxy-2-methyl-1H-indol-3-yl)-N-(2-methoxypyrimidin-4-yl)-2-oxoacetamide], the “2 hr plasma level-ng/mL” value [1] was “C (C = between 100 nM and 1000 nM)”, the inhibition at 600 s, 1 µM [2] was under 25% and the inhibition at 600 s, 10 µM [2] was under 25%. It also gave an IC50 [3] of under 100 nM.
With `COc1ccc2c(c1)c(C(=O)C(=O)Nc1cc(Cl)nc(OC)c1)c(C)n2Cc1ccc(Cl)cc1` [Compound 47, N-(2-chloro-6-methoxypyridin-4-yl)-2-(1-(4-chlorobenzyl)-5-methoxy-2-methyl-1H-indol-3-yl)-2-oxoacetamide] the “2 hr plasma level-ng/mL” value [1] was “C (C = between 100 nM and 1000 nM)”, the inhibition at 600 s, 1 µM [2] was under 25% and the inhibition at 600 s, 10 µM [2] was under 25%. It also gave an IC50 [3] of under 100 nM.
With `COc1ccc2c(C(=O)C(=O)Nc3ccnc(OC)c3)c(C)n(Cc3ccc(Cl)cc3)c2c1` [Compound 48, 2-(1-(4-chlorobenzyl)-6-methoxy-2-methyl-1H-indol-3-yl)-N-(2-methoxypyridin-4-yl)-2-oxoacetamide] the “2 hr plasma level-ng/mL” value [1] was “C (C = between 100 nM and 1000 nM)”, the inhibition at 600 s, 1 µM [2] was under 25% and the inhibition at 600 s, 10 µM [2] was under 25%. For the same compound, the IC50 [3] was under 100 nM.
